11 molecules from patent publication US12264156B2, “Compounds and pharmaceutical compositions thereof for the treatment of diseases” (GALAPAGOS NV, priority 2018, dated 2025) can be followed below.

One assay addresses T1, SIK2 (Homo sapiens, UniProt Q9H0K1).
T1 construct: purchased ThermoFisher Scientific PV4792
Nature of the assay: ADP-Glo kinase assay, SIK2. The format is biochemical. Conditions: ADP-Glo SIK kinase assay. A digest of the protocol: (§1)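 Enzyme–substrate mix was started with ATP and incubated 120 min at RT. ADP formed was quantified by ADP-Glo: 40 min ATP depletion, then 30 min detection reagent converting ADP to ATP for luciferase luminescence, which rises with kinase activity. Controls: 1% DMSO and 10 μM staurosporine (final).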
Background: ADP-Glo turns the ADP formed in a reaction into a luminescent signal.

Assay [1] concerns LPS triggered IL-10 secretion in monocytes. The assay is described as follows: Monocytes assay: LPS-triggered IL-10 (ELISA). The format is cell-based, human. Particulars: LPS 200 ng/mL, supernatant after 4 h, maximal fold change vs LPS only. The protocol:
(§2) SIK inhibition inhibits TNFα and increases IL-10 release in LPS triggered monocyte-derived macrophages (MdM) and dendritic cells (MdDCs) (Clark et al. 2012; Sundberg et al. 2014; Ozanne et al. 2015). This assay evaluates illustrative compounds of the invention for their inhibition of LPS-induced TNFα and LPS triggered IL-10 secretion in monocytes.
(§3) PBMCs are isolated from human blood samples (buffycoats). The buffy coat is aseptically transferred into a 50 mL Falcon tube, and diluted 1/2 in PBS. Falcon tubes are filled with 20 mL Lymphoprep™, on top of which 25 mL of the buffy coat is carefully added, tubes are centrifuged for 35 min at 400 g in temperature controlled centrifuge, without brake, at 25° C. PBMCs are aspirated from the white interface layer between sample and Lymphoprep™. PBMCs are washed five times in PBS. Cells are resuspended in RPMI 1640 complete medium supplemented with 10% FBS, 1% P/S, and cell density is determined using a hematologic analyzer (Sysmex XS-500i).
(§4) PBMCs are centrifuged at 300×g for 10 min and resuspended at a density of 1.0*10^7 cells/80 μL Miltenyi buffer (PBS, pH 7.4, 1% FBS, 2 mM EDTA).
(§5) Starting from this point of the protocol all steps are performed on ice. 20 μL of CD14+ micro-beads are added per 1.0*10^7 cells, the tube is mixed and incubated for 15 min in the fridge at 4° C. Cell suspension volume is adjusted to total volume of 100 mL using Miltenyi buffer, mixed gently and subsequently centrifuged for 10 min at 300×g. Supernantant is discarded and cell pellet is resuspended in 12 mL of Miltenyi buffer.
(§6) Four LS columns are placed in the MACS Separator (magnet) from Miltenyi Biotec, and are prewet by rinsing with 3 mL of MACS buffer per column. Three mL of cell suspension is added onto the column (max 1*10^8 of labelled cells/column), and columns are subsequently washed 3 times with 3 mL of Miltenyi buffer.
(§7) The columns are removed from the magnets, and 5 mL of Miltenyi buffer are added to the column to flush out the CD14+ fraction by pushing the plunger into the column. The flushed fractions are collected in a fresh 50 mL Falcon and volume is adjusted to 30 mL using Miltenyi buffer, cells are centrifuged for 10 min at 300×g. The obtained cell pellet is resuspended in 10 mL RPMI w/o FBS, and cell density is determined using a hematologic analyser (Sysmex XS-500i). 100 000 cells are seeded in 80 μL per well of a 96-well plate in RPMI 1640 medium supplemented with 10% FBS, 1% P/S.
(§8) A compound dilution plate is made in 100% DMSO by 3-fold dilution of 10 mM stock solution. An intermediate dilution plate (10× final concentration) is made by diluting the compound dilution plate 50-fold in RPMI medium.
(§9) 10 μL of the 10× final concentration compound is added to the cells and incubated for 1 h at 37° C. before addition of trigger. No trigger conditions/trigger conditions are spiked with equal final DMSO concentrations of 0.2% DMSO. 10 μL of 10×LPS (final conc. 200 ng/mL) solution are added to all wells except for the ‘no trigger wells’ where 10 μL medium is added. Supernatant is collected after 4 h of LPS triggering.
A Lumitrac 600 Greiner 384-well plate is coated with 40 μL of capture antibody (final concentration of 1 μg/mL in 1×PBS) and stored overnight at 4° C. The next day the plate is washed three times with PBST (PBS+0.05% Tween20) and once with PBS followed by the addition of 100 μL of blocking buffer (1% BSA−5% Sucrose) and plates are sealed and incubated for at least 4 h at RT. After washing the plate once with PBST and once with PBS, 40 μL of standard or sample are added (IL-10 standard curve is prepared using a 1/2 serial dilution starting from […]; dilutions are made in dilution buffer (PBS+1% BSA)). Plates are washed twice with PBST, and once with PBS, after which 35 μL of the detection antibody is added (final concentration 0.143 μg/mL diluted in dilution buffer) and plates are incubated for at least 2 h at RT. […]

Another assay has as its target T2, SIK3 (Homo sapiens, UniProt Q9Y2K2).
T2 construct: purchased SignalChem S12-11G-100
The assay is described as follows: ADP-Glo kinase assay, SIK3. The format is biochemical. Conditions: ADP-Glo SIK kinase assay. A digest of the protocol: as §1

For assay [2], the system named is LPS-induced TNFα in monocytes. Nature of the assay: Monocytes assay: LPS-triggered TNFα (ELISA). The format is cell-based, human. Conditions: Homo sapiens, Monocyte, LPS 200 ng/mL, supernatant after 4 h. The method, then: as §2, §3, §4, §5, §6, §7, §8, §9
A Lumitrac 600 Greiner 384-well plate is coated with 40 μL of capture antibody (BD Pharmingen, Cat #551220) reaching a final concentration of 1 μg/mL in 1×PBS and stored overnight at 4° C.
The plate is then washed once with PBST (PBS+0.05% Tween20) and once with PBS followed by the addition of 100 μL of blocking buffer (1% Bovine Serum Albumin (BSA)−5% Sucrose) and plates are sealed and incubated for at least 4 h at RT. After washing the plate once with PBST and once with PBS, […]. Plates are washed twice with PBST, and once with PBS, after which 35 μL of the detection antibody is added (final concentration 0.25 μg/mL diluted in dilution buffer) and plates are incubated for at least 2 h at RT. […]
(In general: In an ELISA, binding on a coated surface is turned into a signal by an enzyme label.)

The next assay concerns the target T3, SIK1 (Homo sapiens, UniProt P57059).
T3 construct: purchased Carna Biosciences 02-131
The assay is described as follows: ADP-Glo kinase assay, SIK1. The format is biochemical. Particulars: ADP-Glo SIK kinase assay. A digest of the protocol: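 ADP-Glo, RT throughout. Enz/substrate + ATP, 120 min; ADP-Glo reagent 40 min (ATP depletion); detection reagent 30 min; luminescence read. Neg ctrl 1% DMSO, pos ctrl 10 μM staurosporine, final concs.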

T2 sequence (Q9Y2K2 whole entry): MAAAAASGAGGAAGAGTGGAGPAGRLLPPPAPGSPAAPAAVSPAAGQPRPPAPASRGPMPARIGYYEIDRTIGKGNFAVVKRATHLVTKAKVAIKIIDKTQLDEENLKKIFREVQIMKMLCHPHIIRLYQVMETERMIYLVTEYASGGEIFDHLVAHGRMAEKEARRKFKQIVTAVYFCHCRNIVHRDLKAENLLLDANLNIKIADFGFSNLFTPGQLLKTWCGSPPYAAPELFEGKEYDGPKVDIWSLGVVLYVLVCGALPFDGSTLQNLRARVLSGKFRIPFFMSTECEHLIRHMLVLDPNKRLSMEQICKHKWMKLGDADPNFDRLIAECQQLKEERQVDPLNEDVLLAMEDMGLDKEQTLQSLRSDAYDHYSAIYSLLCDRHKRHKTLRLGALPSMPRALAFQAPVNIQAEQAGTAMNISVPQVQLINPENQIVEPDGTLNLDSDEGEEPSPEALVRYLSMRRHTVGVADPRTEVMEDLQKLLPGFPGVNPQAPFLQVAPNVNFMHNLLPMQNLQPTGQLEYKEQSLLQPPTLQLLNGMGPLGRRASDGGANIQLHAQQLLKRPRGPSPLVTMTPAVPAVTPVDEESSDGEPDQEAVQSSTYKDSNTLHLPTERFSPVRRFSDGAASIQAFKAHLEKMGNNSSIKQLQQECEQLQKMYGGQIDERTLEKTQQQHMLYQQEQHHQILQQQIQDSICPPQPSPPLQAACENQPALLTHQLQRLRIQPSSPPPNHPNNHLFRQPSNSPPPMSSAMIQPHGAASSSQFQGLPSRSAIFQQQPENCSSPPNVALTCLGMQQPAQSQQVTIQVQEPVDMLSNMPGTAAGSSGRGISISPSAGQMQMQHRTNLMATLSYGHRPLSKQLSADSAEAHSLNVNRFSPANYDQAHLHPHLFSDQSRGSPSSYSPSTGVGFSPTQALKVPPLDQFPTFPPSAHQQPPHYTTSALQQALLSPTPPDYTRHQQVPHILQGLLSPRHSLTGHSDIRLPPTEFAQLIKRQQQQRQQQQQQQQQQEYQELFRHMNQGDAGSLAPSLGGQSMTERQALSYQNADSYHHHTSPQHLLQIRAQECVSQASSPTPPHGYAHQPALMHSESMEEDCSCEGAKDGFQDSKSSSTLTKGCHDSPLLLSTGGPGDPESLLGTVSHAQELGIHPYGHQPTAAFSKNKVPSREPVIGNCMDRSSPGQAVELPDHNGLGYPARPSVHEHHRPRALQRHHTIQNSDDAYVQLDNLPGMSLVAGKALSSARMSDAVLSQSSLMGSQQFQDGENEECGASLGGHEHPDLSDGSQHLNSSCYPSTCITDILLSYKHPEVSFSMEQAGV
T1 sequence (Q9H0K1 whole entry): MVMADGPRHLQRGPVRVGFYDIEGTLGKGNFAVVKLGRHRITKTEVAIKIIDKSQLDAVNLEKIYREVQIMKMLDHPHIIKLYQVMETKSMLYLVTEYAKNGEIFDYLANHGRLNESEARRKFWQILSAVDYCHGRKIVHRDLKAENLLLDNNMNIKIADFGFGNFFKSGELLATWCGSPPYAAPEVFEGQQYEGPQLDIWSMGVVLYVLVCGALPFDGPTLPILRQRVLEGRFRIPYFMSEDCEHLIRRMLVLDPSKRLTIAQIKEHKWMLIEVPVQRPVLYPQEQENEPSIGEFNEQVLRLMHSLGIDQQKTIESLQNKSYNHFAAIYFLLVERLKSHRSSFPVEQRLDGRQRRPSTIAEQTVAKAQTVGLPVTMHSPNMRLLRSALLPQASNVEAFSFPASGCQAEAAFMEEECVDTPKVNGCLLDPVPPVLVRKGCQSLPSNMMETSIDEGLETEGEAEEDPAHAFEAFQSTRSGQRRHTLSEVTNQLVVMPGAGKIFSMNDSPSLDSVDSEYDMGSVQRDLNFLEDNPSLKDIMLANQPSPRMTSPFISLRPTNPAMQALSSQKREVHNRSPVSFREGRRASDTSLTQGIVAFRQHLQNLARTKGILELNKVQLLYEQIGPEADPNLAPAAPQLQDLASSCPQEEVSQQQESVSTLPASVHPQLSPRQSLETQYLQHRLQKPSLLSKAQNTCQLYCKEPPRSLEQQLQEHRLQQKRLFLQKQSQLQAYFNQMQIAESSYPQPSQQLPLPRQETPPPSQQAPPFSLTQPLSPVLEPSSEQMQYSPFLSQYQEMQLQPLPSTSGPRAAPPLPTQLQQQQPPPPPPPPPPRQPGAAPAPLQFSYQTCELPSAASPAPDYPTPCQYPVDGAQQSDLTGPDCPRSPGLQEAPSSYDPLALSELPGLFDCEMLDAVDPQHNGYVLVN
T3 sequence (P57059 whole entry): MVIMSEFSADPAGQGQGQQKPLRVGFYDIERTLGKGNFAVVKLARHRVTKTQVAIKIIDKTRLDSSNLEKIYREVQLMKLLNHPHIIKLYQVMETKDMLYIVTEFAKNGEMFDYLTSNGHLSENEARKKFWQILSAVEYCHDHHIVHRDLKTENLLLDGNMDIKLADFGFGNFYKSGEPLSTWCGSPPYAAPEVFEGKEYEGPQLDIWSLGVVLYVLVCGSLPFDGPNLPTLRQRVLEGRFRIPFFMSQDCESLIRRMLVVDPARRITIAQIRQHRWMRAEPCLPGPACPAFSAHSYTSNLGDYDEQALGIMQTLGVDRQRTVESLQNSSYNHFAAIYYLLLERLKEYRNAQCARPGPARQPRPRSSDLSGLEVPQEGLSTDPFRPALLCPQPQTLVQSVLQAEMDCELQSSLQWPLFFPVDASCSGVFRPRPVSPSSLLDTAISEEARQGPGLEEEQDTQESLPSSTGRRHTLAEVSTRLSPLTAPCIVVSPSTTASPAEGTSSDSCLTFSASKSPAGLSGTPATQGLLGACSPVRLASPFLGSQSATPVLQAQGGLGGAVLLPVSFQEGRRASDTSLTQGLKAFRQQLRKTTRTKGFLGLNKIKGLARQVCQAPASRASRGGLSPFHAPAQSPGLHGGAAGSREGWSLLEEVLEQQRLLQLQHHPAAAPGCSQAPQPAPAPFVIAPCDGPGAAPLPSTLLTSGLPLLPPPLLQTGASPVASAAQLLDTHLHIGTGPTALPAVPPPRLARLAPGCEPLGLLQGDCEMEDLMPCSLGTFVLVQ

One may read the IC50 as the concentration that gives 50% inhibition. The EC50 is the concentration giving half of the maximal effect. Turning to `CCOC(=O)COc1ccn2c(-c3cc(OC)c(C(=O)NC4CC4)c(OC(F)F)c3)cnc2c1` [Cpd 268, ethyl 2-[3-[4-(cyclopropylcarbamoyl)-3-(difluoromethoxy)-5-methoxy-phenyl]imidazo[1,2-a]pyridin-7-yl]oxyacetate], the IC50 on SIK2 was in the range of 10 to 100 nM; on SIK3 it was 0.01 to 10 nM; on SIK1 it was 10 to 100 nM. For the same molecule, the “IL-10 FCmax median” value in assay [1] is recorded as “+++ (>4.5)”. The EC50 in assay [2] (4 h) was 100 to 1000 nM.
In the case of `COc1cc(-c2cnc3cc(OC4C[C@H]5CC[C@@H](C4)N5)ccn23)cc(OC(F)F)c1C(=O)NC1CC1.Cl` (stereo partly drawn) [Cpd 270, 4-[7-[[(1R,5S)-8-azabicyclo[3.2.1]octan-3-yl]oxy]imidazo[1,2-a]pyridin-3-yl]-N-cyclopropyl-2-(difluoromethoxy)-6-methoxy-benzamide hydrochloride salt], the IC50 lay in the range of 10 to 100 nM at SIK2, 0.01 to 10 nM at SIK3 and 100 to 500 nM against SIK1. In assay [1], the “IL-10 FCmax median” value is given as “++ (>1.5-4.5)”. The same molecule gave an EC50 in assay [2] of 1000 to 5000 nM.
In the case of `COc1cc(-c2cnc3cc(OC4C[C@H]5CC[C@@H](C4)N5CCC#N)ccn23)cc(OC(F)F)c1C(=O)NC1CC1` (stereo partly drawn) [Cpd 271, 4-[7-[[(1S,5R)-8-(2-cyanoethyl)-8-azabicyclo[3.2.1]octan-3-yl]oxy]imidazo[1,2-a]pyridin-3-yl]-N-cyclopropyl-2-(difluoromethoxy)-6-methoxy-benzamide], the IC50 was 10 to 100 nM against SIK2, 0.01 to 10 nM against SIK3 and 100 to 500 nM at SIK1. The “IL-10 FCmax median” value in assay [1] is recorded as “++ (>1.5-4.5)”. The molecule further registered a concentration giving a half-maximal response (EC50) in assay [2] (4 h) of 100 to 1000 nM.
For `COc1cc(-c2cnc3cc(OCCCN4CCN(C(C)C)CC4)ccn23)cc(OC(F)F)c1C(=O)NC1CC1` [Cpd 279, N-cyclopropyl-2-(difluoromethoxy)-4-[7-[3-(4-isopropylpiperazin-1-yl)propoxy]imidazo[1,2-a]pyridin-3-yl]-6-methoxy-benzamide], the IC50 against SIK2, at SIK3 and on SIK1 was 0.01 to 10 nM in each case. For the same molecule, in assay [1], the “IL-10 FCmax median” value is listed as “+++ (>4.5)”. The molecule also returned an EC50 in assay [2] (4 h) of 0.1 to 100 nM.
Regarding `COc1cc(-c2cnc3cc(OCC4CCN(C(C)C)C4)ccn23)cc(OC(F)F)c1C(=O)NC1CC1` (stereo not shown) [Cpd 287, N-cyclopropyl-2-(difluoromethoxy)-4-[7-[(1-isopropylpyrrolidin-3-yl)methoxy]imidazo[1,2-a]pyridin-3-yl]-6-methoxy-benzamide], the IC50 against SIK2 lay in the range of 0.01 to 10 nM; on SIK3, 0.01 to 10 nM; against SIK1, 10 to 100 nM. Further, the “IL-10 FCmax median” value in assay [1] is given as “++ (>1.5-4.5)”. This molecule registered an EC50 in assay [2] (4 h) of 0.1 to 100 nM.
For the molecule `COc1cc(-c2cnc3cc(OCC4CCN(C5COC5)C4)ccn23)cc(OC(F)F)c1C(=O)NC1CC1` (stereo not shown) [Cpd 288, N-cyclopropyl-2-(difluoromethoxy)-6-methoxy-4-[7-[[1-(oxetan-3-yl)pyrrolidin-3-yl]methoxy]imidazo[1,2-a]pyridin-3-yl]benzamide], the results for the IC50 against SIK2, against SIK3 and against SIK1 were 0.01 to 10 nM, 0.01 to 10 nM and 10 to 100 nM, respectively. Also, the “IL-10 FCmax median” value in assay [1] is “+++ (>4.5)”. In addition, the EC50 in assay [2] (4 h) lay in the range of 0.1 to 100 nM.
Take `COc1cc(-c2cnc3cc(OC[C@H]4CCCNC4)ccn23)cc(OC(F)F)c1C(=O)NC1CC1` [Cpd 315, N-cyclopropyl-2-(difluoromethoxy)-6-methoxy-4-[7-[[(3S)-3-piperidyl]methoxy]imidazo[1,2-a]pyridin-3-yl]benzamide]: the IC50 on SIK2 lay within 0.01 to 10 nM; against SIK3, 0.01 to 10 nM; on SIK1 it was 10 to 100 nM. In addition, in assay [1], the “IL-10 FCmax median” value was “++ (>1.5-4.5)”. For the same molecule, in assay [2] (4 h), the EC50 lay in the range of 100 to 1000 nM.
Regarding `COc1cc(-c2cnc3cc(OCC4CN(CC#N)C4)ccn23)cc(OC(F)F)c1C(=O)NC1CC1` [Cpd 322, 4-[7-[[1-(cyanomethyl)azetidin-3-yl]methoxy]imidazo[1,2-a]pyridin-3-yl]-N-cyclopropyl-2-(difluoromethoxy)-6-methoxy-benzamide], the half-inhibitory concentration (IC50) at SIK2 lay within 0.01 to 10 nM; on SIK3 it was 0.01 to 10 nM; against SIK1, 10 to 100 nM. Also, the “IL-10 FCmax median” value in assay [1] is recorded as “++ (>1.5-4.5)”. The molecule also displayed a half-maximal effective concentration (EC50) in assay [2] of 0.1 to 100 nM.
For `COc1cc(-c2cnc3cc(OCC4CN(CCC#N)C4)ccn23)cc(OC(F)F)c1C(=O)NC1CC1` [Cpd 323, 4-[7-[[1-(2-cyanoethyl)azetidin-3-yl]methoxy]imidazo[1,2-a]pyridin-3-yl]-N-cyclopropyl-2-(difluoromethoxy)-6-methoxy-benzamide], the IC50 against SIK2 lay in the range of 0.01 to 10 nM; against SIK3 it was 0.01 to 10 nM; against SIK1 it was 10 to 100 nM. Also, in assay [1], the “IL-10 FCmax median” value is “+++ (>4.5)”. In assay [2] (4 h), this molecule came in with an EC50 of 0.1 to 100 nM.
In the case of `COc1cc(-c2cnc3cc(OC[C@@H]4CCNC4)ccn23)cc(OC(F)F)c1C(=O)NC1CC1` [Cpd 334, N-cyclopropyl-2-(difluoromethoxy)-6-methoxy-4-[7-[[(3R)-pyrrolidin-3-yl]methoxy]imidazo[1,2-a]pyridin-3-yl]benzamide], the figures for the IC50 on SIK2, at SIK3 and against SIK1 were 0.01 to 10 nM, 0.01 to 10 nM and 10 to 100 nM, respectively. Moreover, the “IL-10 FCmax median” value in assay [1] was “++ (>1.5-4.5)”. In assay [2] (4 h), this molecule returned an EC50 of 100 to 1000 nM.
For the molecule `COc1cc(-c2cnc3cc(OC[C@@H]4CCCNC4)ccn23)cc(OC(F)F)c1C(=O)NC1CC1` [Cpd 335, N-cyclopropyl-2-(difluoromethoxy)-6-methoxy-4-[7-[[(3R)-3-piperidyl]methoxy]imidazo[1,2-a]pyridin-3-yl]benzamide], the IC50 against SIK2 is 0.01 to 10 nM; at SIK3, 0.01 to 10 nM; at SIK1, 10 to 100 nM. Besides, in assay [1], the “IL-10 FCmax median” value is “+++ (>4.5)”. In addition, in assay [2] (4 h), the EC50 was 100 to 1000 nM.
